From patent US20190364896A1, “SYNERGISTIC WEED CONTROL FROM APPLICATIONS OF PYRIDINE CARBOXYLIC ACID HERBICIDES AND ALS INHIBITORS” (Dow AgroSciences LLC, priority 2014, published 2019)
Where two headings read alike, the source gives them in different places.

What was measured:
Experiment in all cases: Postemergence herbicidal activity, greenhouse trial (visual injury 0-100%)
Format in all cases: in vivo
[1] = test system: kochia (Kochia scoparia, KCHSC); conditions: Bassia scoparia, post-emergence, read-out: % visual injury Obs
Protocol: (§1) Seeds of the desired test plant species were planted in Sun Gro MetroMix® 306 planting mixture, which typically has a pH of 6.0 to 6.8 and an organic matter content of about 30 percent, in plastic pots with a surface area of 103.2 square centimeters (cm^2). […] The plants were grown for 7-36 days (d) in a greenhouse with an approximate 14-hour (h) photoperiod which was maintained at about 23° C. during the day and 22° C. during the night. Nutrients and water were added on a regular basis and supplemental lighting was provided with overhead metal halide 1000-Watt lamps as necessary. The plants were employed for testing when they reached the second or third true leaf stage.
(§2) Weighed amounts of technical or formulated material (emulsifiable concentrate (EC) or soluble concentrate (SL)) were dissolved in a volume of 97:3 volume per volume (v/v) acetone/dimethyl sulfoxide (DMSO) to stock solutions. […] The concentrated stock solutions were diluted with an aqueous mixture of 1.5% v/v of Agri-dex crop oil concentrate to provide the appropriate application rates. Compound requirements are based upon a 12 milliliter (mL) application volume at a rate of 187 liters per hectare (L/ha). Spray solutions of the experimental compound mixtures were prepared by adding the stock solutions to the appropriate amount of dilution solution to form a 12 mL spray solution in two-way combinations. Formulated compounds were applied to the plant material with an overhead Mandel track sprayer equipped with 8002E nozzles calibrated to deliver 187 L/ha over an application area of 0.503 square meters (m^2) at a spray height of 18 inches (43 centimeters (cm)) above average plant canopy. Control plants were sprayed in the same manner with the solvent blank. Application rates for component (a) are in g ae/ha, and application rates for component (b) are in g ai/ha.
(§3) The treated plants and control plants were placed in a greenhouse as described above and watered by sub-irrigation to prevent wash-off of the test compounds. After 20-22 d, the condition of the test plants as compared with that of the control plants was determined visually and scored on a scale of 0 to 100 percent where 0 corresponds to no injury and 100 corresponds to complete kill. Colby's equation was used to determine the herbicidal effects expected from the mixtures. […]
(§4) Weighed amounts of technical material were dissolved in a volume of 97:3 volume per volume (v/v) acetone/dimethyl sulfoxide (DMSO) to stock solutions. […] The concentrated stock solutions were diluted with an aqueous mixture of 1.5% v/v of Agri-dex crop oil concentrate to provide the appropriate application rates. Compound requirements are based upon a 12 milliliter (mL) application volume at a rate of 187 liters per hectare (L/ha).

[2] = test system: wild buckwheat (Polygonum convolvulus, POLCO); conditions: Fallopia convolvulus, post-emergence, read-out: % visual injury Obs
Protocol: as §1, §2, §3, §4

[3] = test system: grain sorghum (Sorghum vulgare, SORVU)
Protocol: as §1, §2
(§5) The treated plants and control plants were placed in a greenhouse as described above and watered by sub-irrigation to prevent wash-off of the test compounds. After 20-22 d, the condition of the test plants as compared with that of the control plants was determined visually and scored on a scale of 0 to 100 percent where 0 corresponds to no injury and 100 corresponds to complete kill. The condition of the test plants was compared with that of the control plants as determined visually and scored on a scale of 0 to 100 percent, where 0 corresponds to no injury and 100 corresponds to complete kill. Colby's equation was used to determine the herbicidal effects expected from the mixtures.
(§6) Compound 1 was formulated as an EC and was combined with florasulam, cloransulam, diclosulam, flumetsulam, penoxsulam, or pyroxsulam. Compound 2 was formulated as an EC and was combined with florasulam or pyroxsulam. The mixtures were applied to winter wheat (TRZAW), common rice (ORYSA), maize (ZEAMX), and the phytotoxicity of the herbicidal compositions was measured. In addition, the efficacy of the herbicidal compositions on blackgrass (Alopecurus myosuroides, ALOMY), pigweed (Amaranthus retrollexus, AMARE), wild oat (Avena fatua, AVEFA), common lambsquarters (Chenopodium album L., CHEAL), thistle (Cirsium arvense CIRAR), nutsedge (Cyperus esculentus, CYPES), barnyardgrass (Echinochloa crus-galli, ECHCG), poinsettia (Euphorbia heterophylla, EPHHL), ivyleaf morning-glory (Ipomoea hederacea, IPOHE), kochia (Kochia scoparia, KCHSC), wild buckwheat (Polygonum convolvulus, POLCO), grain sorghum (Sorghum vulgare, SORVU), chickweed (Stellaria media, STEME), wild pansy (Viola tricolor, VIOTR), was evaluated.
as §4, with “(L/ha). […]” for “(L/ha).”

[4] = test system: nutsedge (Cyperus esculentus, CYPES); conditions: Cyperus, post-emergence, read-out: % visual injury Obs
Protocol: as §1
as §2, with “technical” for “technical or formulated”, “material” for “material (emulsifiable concentrate (EC) or soluble concentrate (SL))”
as §3, §2

[5] = test system: poinsettia (Euphorbia heterophylla, EPHHL); conditions: Euphorbia heterophylla, post-emergence, read-out: % visual injury Obs
Protocol: as §1
as §2, with “technical” for “technical or formulated”, “material” for “material (emulsifiable concentrate (EC) or soluble concentrate (SL))”
as §3, §2

[6] = test system: pigweed (Amaranthus retroflexus, AMARE); conditions: Amaranthus retroflexus, post-emergence, read-out: % visual injury Obs
Protocol: as §1, §2, §3, §4

[7] = test system: blackgrass (Alopecurus myosuroides, ALOMY)
Protocol: as §1, §2, §5, §6
as §4, with “(L/ha). […]” for “(L/ha).”

[8] = test system: common lambsquarters (Chenopodium album L., CHEAL); conditions: Chenopodium album, post-emergence, read-out: % visual injury Obs
Protocol: as §1, §2, §5, §6
as §4, with “(L/ha). […]” for “(L/ha).”

[9] = test system: ivyleaf morning-glory (Ipomoea hederacea, IPOHE); conditions: Ipomoea hederacea, post-emergence, read-out: % visual injury Obs
Protocol: as §1, §2, §5, §6
as §4, with “(L/ha). […]” for “(L/ha).”

[10] = test system: wild oat (Avena fatua, AVEFA)
Protocol: as §1, §2, §5, §6
as §4, with “(L/ha). […]” for “(L/ha).”

[11] = test system: chickweed (Stellaria media, STEME); conditions: Stellaria media, post-emergence, STEME; azimsulfuron 6.25 g ai/ha; read-out: % visual injury Obs
Protocol: as §1, §2, §5, §6
as §4, with “(L/ha). […]” for “(L/ha).”

[12] = test system: wild pansy (Viola tricolor, VIOTR); conditions: Viola tricolor, post-emergence, read-out: % visual injury Obs
Protocol: as §1, §2, §5
as §6, with “Compound 1 was formulated as an EC and was combined with florasulam, cloransulam, diclosulam, flumetsulam, penoxsulam, or pyroxsulam.” left out
as §4

[13] = test system: thistle (Cirsium arvense, CIRAR); conditions: Cirsium arvense, post-emergence, read-out: % visual injury Obs
Protocol: as §1, §2, §3, §4

[14] = test system: barnyardgrass (Echinochloa crus-galli, ECHCG); conditions: Echinochloa crus-galli, post-emergence, 7.5 g ai/ha; read-out: % visual injury Obs
Protocol: as §1, §2, §5, §6
as §4, with “(L/ha). […]” for “(L/ha).”

COC(=O)c1ccc(CNS(C)(=O)=O)cc1S(=O)(=O)NC(=O)Nc1nc(OC)cc(OC)n1 [Mesosulfuron, mesosulfuron]
pest or weed control at 3 g/ha ([1]; KCHSC, mesosulfuron 3 g ai/ha): 10%
pest or weed control at 3 g/ha ([2]; POLCO, mesosulfuron 3 g ai/ha): 20%
% visual injury Obs ([3]; SORVU, mesosulfuron 3 g ai/ha): 97%

Nc1c(F)c(-c2ccc3cc[nH]c3c2F)nc(C(=O)OCc2ccccc2)c1Cl [Compound 2]
pest or weed control at 5 g/ha ([4]; 5 g ae/ha): 5%
pest or weed control at 10 g/ha ([4]; 10 g ae/ha): 10%
pest or weed control at 5 g/ha ([5]; 5 g ae/ha): 35%
pest or weed control at 10 g/ha ([5]; 10 g ae/ha): 75%
pest or weed control at 5 g/ha ([6]; 5 g ae/ha): 88%
pest or weed control at 10 g/ha ([6]; 10 g ae/ha): 100%
% visual injury Obs ([7]; 5 g ae/ha): 0%
% visual injury Obs ([7]; 10 g ae/ha): 0%
pest or weed control at 5 g/ha ([8]; 5 g ae/ha): 88%
pest or weed control at 10 g/ha ([8]; 10 g ae/ha): 99%
pest or weed control at 5 g/ha ([9]; 5 g ae/ha): 10%
pest or weed control at 10 g/ha ([9]; 10 g ae/ha): 20%
% visual injury Obs ([10]; 5 g ae/ha): 0%
% visual injury Obs ([10]; 10 g ae/ha): 0%

COc1cc(OC)nc(NC(=O)NS(=O)(=O)c2c(-c3nnn(C)n3)cnn2C)n1 [Azimsulfuron, azimsulfuron]
pest or weed control ([5]; EPHHL, azimsulfuron 6.25 g ai/ha): 10%
pest or weed control ([1]; KCHSC, azimsulfuron 6.25 g ai/ha): 0%
pest or weed control [11]: 20%
pest or weed control ([8]; CHEAL, azimsulfuron 6.25 g ai/ha): 10%
% visual injury Obs ([3]; SORVU, azimsulfuron 6.25 g ai/ha): 65%
pest or weed control ([9]; IPOHE, azimsulfuron 6.25 g ai/ha): 93%
pest or weed control ([12]; VIOTR, azimsulfuron 6.25 g ai/ha): 60%

COc1cc(OC)nc(NC(=O)NS(=O)(=O)c2cc(NC=O)ccc2C(=O)N(C)C)n1 [Foramsulfuron, foramsulfuron]
pest or weed control at 10 g/ha ([6]; AMARE, foramsulfuron 10 g ai/ha): 85%
% visual injury Obs ([7]; ALOMY, foramsulfuron 10 g ai/ha): 93%

Cc1ccn2nc(S(=O)(=O)Nc3c(F)cccc3F)nc2n1 [Flumetsulam, flumetsulam]
pest or weed control ([4]; 4.375 g ai/ha): 10%
pest or weed control ([5]; 4.375 g ai/ha): 30%
pest or weed control ([1]; 4.375 g ai/ha): 60%
pest or weed control ([13]; 4.375 g ai/ha): 10%
% visual injury Obs ([3]; 4.375 g ai/ha): 60%
pest or weed control ([12]; 4.375 g ai/ha): 70%

COc1cc(OC)nc(NC(=O)NS(=O)(=O)N(C)S(C)(=O)=O)n1 [Amidosulfuron, amidosulfuron]
pest or weed control at […] ([4]; 7.5 g ai/ha): 20%
pest or weed control at […] ([1]; 7.5 g ai/ha): 10%
pest or weed control at […] ([13]; 7.5 g ai/ha): 20%
pest or weed control at […] ([2]; 7.5 g ai/ha): 85%
pest or weed control at […] [14]: 0%
pest or weed control at […] ([9]; 7.5 g ai/ha): 35%

COc1cnc(OC)n2nc(NS(=O)(=O)c3c(OCC(F)F)cccc3C(F)(F)F)nc12 [Penoxsulam, penoxsulam]
pest or weed control at 5 g/ha ([4]; 5 g ai/ha): 70%
pest or weed control at 5 g/ha ([5]; 5 g ai/ha): 60%
pest or weed control at 5 g/ha ([1]; 5 g ai/ha): 10%
% visual injury Obs ([3]; 5 g ai/ha): 0%
pest or weed control at 5 g/ha ([9]; 5 g ai/ha): 90%
